EC50 and IC50 data for 26 compounds are collected here from patent US12692274B2, “Tetrahydroisoquinoline derivatives for the treatment of red blood disorders and inflammatory diseases” (Sanofi, priority 2020, dated 2026).

As a reminder, the EC50 is the midpoint of the concentration-response curve. A word on the IC50: it is the concentration that inhibits the measured activity by half. A higher IC50 goes with weaker potency in that assay.

Test [1] deals with NQO1 activation in BEAS-2B cells. As to the kind of experiment: BEAS-2B cellular MTT assay of NQO1 activation, 0% HSA. The format is cell-based. To be noted: serum free, read-out: BEAS EC50 (nM) serum free. An outline of the steps: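 For the 0% HSA condition, cells were seeded into collagen plates in HSA-free medium. Culture was BEAS-2B in BEBM plus BEGM SingleQuots lacking GA-1000, held under 70% confluence, at a seeding density reaching 95-100% confluence by 48 h.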
Background: Tetrazolium assays rely on reduction of a dye to a coloured formazan, in cell work by metabolically active cells.

For test [2] the test system is unchanged. As to the kind of experiment: BEAS-2B cellular MTT assay of NQO1 activation, 0.3% HSA. The settings on record: BEAS+, read-out: BEAS+ EC50. The test is classed as cell-based. The essentials: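 MTT read-out in BEAS-2B cells grown in BEBM with SingleQuots, no GA-1000, kept below 70% confluence; plates coated with collagen, with 0.3% or 0% HSA medium, seeded to 95-100% confluency at 48 h, 37 °C, 5% CO2.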

In test [3] the target is HIS-Keap1 full length / Biotin-Nrf2 (16-mer) (Homo sapiens, UniProt Q14145). Nature of the test: biochemical.
HIS-Keap1 full length / Biotin-Nrf2 (16-mer), sequence (Q14145 whole entry): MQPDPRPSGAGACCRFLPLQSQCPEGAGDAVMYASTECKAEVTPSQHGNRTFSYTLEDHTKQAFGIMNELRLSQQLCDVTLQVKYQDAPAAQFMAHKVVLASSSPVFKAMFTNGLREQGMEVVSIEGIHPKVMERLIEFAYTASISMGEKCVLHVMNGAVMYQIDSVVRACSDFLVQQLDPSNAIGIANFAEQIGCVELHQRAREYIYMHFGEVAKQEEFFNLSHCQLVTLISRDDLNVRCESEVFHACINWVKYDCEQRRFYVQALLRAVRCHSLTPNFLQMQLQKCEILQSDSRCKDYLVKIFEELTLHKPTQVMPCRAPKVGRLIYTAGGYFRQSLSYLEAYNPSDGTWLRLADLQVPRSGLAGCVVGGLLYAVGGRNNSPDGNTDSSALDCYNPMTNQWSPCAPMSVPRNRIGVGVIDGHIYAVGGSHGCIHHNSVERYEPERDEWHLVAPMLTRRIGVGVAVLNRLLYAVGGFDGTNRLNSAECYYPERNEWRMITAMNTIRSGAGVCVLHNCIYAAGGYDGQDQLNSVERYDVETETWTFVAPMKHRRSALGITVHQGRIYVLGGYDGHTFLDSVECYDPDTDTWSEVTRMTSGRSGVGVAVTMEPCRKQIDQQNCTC

SMILES strings stand for the structures. Several values for one entry are separate records, joined by “and”; a condition that tells them apart may be missing. Equal values may be shown once.

As for `C[C@H](C(=O)O)[C@H]1c2ccc3c(c2)CN(CC3)C(=O)c2ccc(cc2)OCCCCCn2nnc3cc1ccc32` [Compound 234], the concentration giving a half-maximal response (EC50) in test [1] (Homo sapiens) was 1840 nM; in test [1] it was 1410 nM; in test [2], 5.84 µM; in test [2] (Homo sapiens) it was 3.86 µM. In test [3], 0.0491 µM corresponded to half-maximal inhibition (IC50).
As to `CC(C)(C(=O)O)[C@@H]1c2ccc3c(c2)CN(CC3)C(=O)c2c(F)cc(cc2F)OCCCCCCn2nnc3cc1ccc32` [Compound 236], the EC50 in test [1] (Homo sapiens) was 62.7 nM; in test [1], 50.3 nM and 82.1 nM and 84.7 nM; in test [2], 0.248 µM and 0.22 µM and 0.19 µM; in test [2] (Homo sapiens), 0.286 µM. The IC50 in test [3] is 0.051 µM and 0.0444 µM and 0.0446 µM.
For the compound `O=C(O)CC1c2cnc(nc2)OCCCCCc2ccc(c(F)c2)C(=O)N2CCc3ccc1cc3C2` (centres unmarked) [Compound 238], the 50% effective concentration (EC50) in test [1] (Homo sapiens) is 571 nM; in test [1], 377 nM; in test [2], 0.603 µM; in test [2] (Homo sapiens), 0.572 µM. In addition, the IC50 in test [3] was 0.0062 µM.
Turning to `O=C(O)CC1c2ccc3c(c2)CN(CC3)C(=O)c2c(F)cc(cc2F)CCCCCCn2nnc3cc1ccc32` (centres unmarked) [Compound 243], the 50% effective concentration (EC50) in test [1] (Homo sapiens) was 40.7 nM; in test [1] it was 48.7 nM; in test [2], 0.104 µM; in test [2] (Homo sapiens), 0.0718 µM. This compound yielded an IC50 in test [3] of 0.0026 µM.
As to `Cc1c2ccc3c1nnn3CCCCCCOc1ccc(cc1)C(=O)N1CCc3ccc(cc3C1)C2CC(=O)O` (centres unmarked) [Compound 247], the half-maximal effective concentration (EC50) in test [1] (Homo sapiens) was 29.4 nM; in test [1] it was 26.3 nM; in test [2] it was 0.0472 µM; in test [2] (Homo sapiens), 0.0454 µM. Also, in test [3], the IC50 was 0.0016 µM and 0.0017 µM.
For the compound `O=C(O)CC1c2ccc3c(c2)CN(CC3)C(=O)c2ccc(cc2F)CCCCCn2nnc3cc1ccc32` (centres unmarked) [Compound 252], the concentration for a half-maximal effect (EC50) in test [1] (Homo sapiens) was 15.5 nM; in test [2] (Homo sapiens) it was 0.0212 µM. In addition, the IC50 in test [3] is 1.2 nM and 1.3 nM (2×) and 1.4 nM.
`Cc1c2ccc3c1nnn3CCCCCCc1cc(F)c(c(F)c1)C(=O)N1CCc3ccc(cc3C1)C2CC(=O)O` (centres unmarked) [Compound 253]: the concentration giving a half-maximal response (EC50) turned out to be 5.4 nM in test [1] (Homo sapiens) and 0.0066 µM in test [2] (Homo sapiens). The compound further came in with an IC50 in test [3] of 0.0013 µM.
As for `Cc1c2ccc3c1nnn3CCCCCOc1ccc(c(F)c1)C(=O)N1CCc3ccc(cc3C1)[C@@H]2CC(=O)O` [Compound 254], the EC50 in test [1] (Homo sapiens) came out at 16 nM; in test [1], 17.2 nM; in test [2] it was 0.0226 µM; in test [2] (Homo sapiens) it was 0.0164 µM. The compound also came in with a concentration for half-maximal inhibition (IC50) in test [3] of 0.0018 µM.
Turning to `C[C@@H](C(=O)O)[C@@H]1c2ccc3c(c2)CN(CC3)C(=O)c2c(F)cc(cc2F)OCCCCCCn2nnc3cc1ccc32` [Compound 256], the concentration giving a half-maximal response (EC50) in test [1] (Homo sapiens) is above 10000 nM; in test [2] (Homo sapiens) it was above 10 µM. In test [3], the concentration for half-maximal inhibition (IC50) worked out at 0.0869 µM.
Consider `C[C@@H](C(=O)O)[C@H]1c2ccc3c(c2)CN(CC3)C(=O)c2c(F)cc(cc2F)OCCCCCCn2nnc3cc1ccc32` [Compound 258], for which the EC50 in test [1] (Homo sapiens) turned out to be 9080 nM; in test [1], 9480 nM; in test [2], 2.53 µM; in test [2] (Homo sapiens) it was 2.64 µM. Moreover, the IC50 in test [3] was found to be 0.0049 µM.
As for `Cc1c2ccc3c1nnn3CCCCCOc1ccc(c(F)c1)C(=O)N1CCc3ccc(cc3C1)[C@H]2CC(=O)O` [Compound 259], the EC50 in test [1] (Homo sapiens) is 20.2 nM; in test [1], 18.7 nM; in test [2] it was 0.0785 µM; in test [2] (Homo sapiens), 0.0476 µM. This compound had an IC50 in test [3] of 0.0041 µM.
Consider `Cc1cc2ccc1OCCCCCCn1nnc3c(C)c(ccc31)C(CC(=O)O)c1ccc3c(c1)CN(CC3)C2=O` (centres unmarked) [Compound 260], for which the EC50 in test [1] (Homo sapiens) stood at 400 nM; in test [1], 403 nM; in test [2], 0.484 µM; in test [2] (Homo sapiens), 0.337 µM. Also, the IC50 in test [3] is 0.006 µM.
On the same counts, the results for `Cc1cc2ccc1OCCCCCn1nnc3c(C)c(ccc31)C(CC(=O)O)c1ccc3c(c1)CN(CC3)C2=O` (centres unmarked) [Compound 261] are 89.8 nM, 93 nM, 0.113 µM, 0.198 µM and 0.003 µM.
Turning to `Cc1c2ccc3c1nnn3CCCCCc1cc(F)c(c(F)c1)C(=O)N1CCc3ccc(cc3C1)C2CC(=O)O` (centres unmarked) [Compound 263], the EC50 amounted to 18.3 nM in test [1] (Homo sapiens) and 0.0204 µM in test [2] (Homo sapiens). Further, the IC50 in test [3] was 0.0027 µM and 0.003 µM.
As to `Cc1c2ccc3c1nnn3CCCCCCc1ccc(cc1F)C(=O)N1CCc3ccc(cc3C1)C2CC(=O)O` (centres unmarked) [Compound 264], the EC50 in test [1] (Homo sapiens) is 3.7 nM; in test [2] (Homo sapiens), 0.0054 µM. The IC50 in test [3] was 0.0027 µM and 0.0029 µM.
As to `Cc1c2ccc3c1nnn3CCCCCc1ccc(c(F)c1)C(=O)N1CCc3ccc(cc3C1)C2CC(=O)O` (centres unmarked) [Compound 266], the EC50 was determined as 2.1 nM in test [1] (Homo sapiens) and 0.0026 µM in test [2] (Homo sapiens). The same compound had a concentration for half-maximal inhibition (IC50) in test [3] of 0.0005 µM.
On to `Cc1c2ccc3c1nnn3CCCCCc1ccc(cc1F)C(=O)N1CCc3ccc(cc3C1)C2CC(=O)O` (centres unmarked) [Compound 267], for which the 50% effective concentration (EC50) in test [1] (Homo sapiens) was found to be 3.9 nM; in test [2] (Homo sapiens), 0.0053 µM. Besides, in test [3], the IC50 was 0.0024 µM and 0.0023 µM.
For the compound `O=C(O)CC1c2ccc(nc2)OCCCCCOc2ccc(c(F)c2)C(=O)N2CCc3ccc1cc3C2` (centres unmarked) [Compound 268], the EC50 in test [1] (Homo sapiens) was found to be 505 nM; in test [2] (Homo sapiens) it was 0.561 µM. Also, the 50% inhibitory concentration (IC50) in test [3] was 0.0681 µM and 0.0707 µM.
For the compound `Cc1c2ccc3c1nnn3CCCCCCOc1ccc(cc1F)C(=O)N1CCc3ccc(cc3C1)C2CC(=O)O` (centres unmarked) [Compound 270], the concentration giving a half-maximal response (EC50) in test [1] (Homo sapiens) worked out at 56.5 nM; in test [2] (Homo sapiens), 0.0559 µM. In addition, in test [3], the concentration for half-maximal inhibition (IC50) was 0.004 µM and 0.0036 µM.
In the case of `Cc1c2ccc3c1nnn3CCCCCCc1ccc(c(F)c1)C(=O)N1CCc3ccc(cc3C1)C2CC(=O)O` (centres unmarked) [Compound 272], the 50% effective concentration (EC50) in test [1] (Homo sapiens) is 2.5 nM; in test [2] (Homo sapiens), 0.0033 µM. For the same compound, in test [3], the IC50 was 0.0011 µM and 0.0013 µM.
On to `Cc1c2ccc3c1nnn3CCCCCOc1ccc(cc1F)C(=O)N1CCc3ccc(cc3C1)C2CC(=O)O` (centres unmarked) [Compound 275], for which the EC50 was 123 nM in test [1] (Homo sapiens) and 0.0859 µM in test [2] (Homo sapiens). The compound further registered an IC50 in test [3] of 0.0019 µM.
With `O=C(O)CC1c2ccc3c(c2)CN(CC3)C(=O)c2ccc(cc2)CCCCCn2nnc3cc1ccc32` (centres unmarked) [Compound 276], the EC50 in test [1] (Homo sapiens) was 88.5 nM; in test [2] (Homo sapiens) it was 0.0493 µM. For the same compound, in test [3], the IC50 is 0.0022 µM and 0.002 µM and 0.0021 µM.
On to `O=C(O)CC1c2cnc(nc2)OCCCCCc2ccc(cc2)C(=O)N2CCc3ccc1cc3C2` (centres unmarked) [Compound 277, 2-(2-oxo-12-oxa-1,14,28-triazapentacyclo[16.5.3.23,6.213,16.021,25]triaconta-3,5,13(28),14,16(27),18(26),19,21(25),29-nonaen-17-yl)acetic Acid], for which the EC50 is 459 nM in test [1] (Homo sapiens) and 3.35 µM in test [2] (Homo sapiens). Also, in test [3], the IC50 was 0.0025 µM and 0.0019 µM and 0.0027 µM and 0.0017 µM.
Take `O=C(O)CC1c2ccc3c(c2)CN(CC3)C(=O)c2ccc(cc2F)CCCCCCn2nnc3cc1ccc32` (centres unmarked) [Compound 278]: the values for the EC50 in test [1] (Homo sapiens) and in test [2] (Homo sapiens) were 136 nM and 0.159 µM, respectively. For the same compound, the 50% inhibitory concentration (IC50) in test [3] was 1.8 nM (2×) and 1.4 nM and 1.3 nM.
`CC(C)(C(=O)O)C1c2ccc3c(c2)CN(CC3)C(=O)c2ccc(cc2)CCCCCCn2nnc3cc1ccc32` (centres unmarked) [Compound 279]: the concentration for a half-maximal effect (EC50) in test [1] (Homo sapiens) was 10.8 nM; in test [2] (Homo sapiens), 0.0107 µM. In test [3], the IC50 is 2.3 nM and 2.2 nM (2×) and 2.1 nM.
With `O=C(O)CC1c2ccc3c(c2)CN(CC3)C(=O)c2ccc(cc2)CCCCCCn2nnc3cc1ccc32` (centres unmarked) [Compound 280], the figures for the EC50 in test [1] (Homo sapiens) and in test [2] (Homo sapiens) were 108 nM and 0.114 µM, respectively. In addition, the IC50 in test [3] is 2.3 nM (2×) and 2.8 nM (2×).
